Results taken from patent publication US20080021217A1, “HETEROCYCLIC INHIBITORS OF RHO KINASE” (priority 2006, published 2008).

Columns and labels:
[1] = target: T1, recombinant N-terminal GST-tagged human Rho kinase 1 (ROCK1, amino acids 1-535) (Homo sapiens, UniProt Q13464); assay: In vitro Rho kinase assay (luciferase-based ATP consumption), ROCK1; format: biochemical
T1 construct: ROCK1, amino acids 1-535, Invitrogen Inc., cat. #PV-3691; GST (N); purchased Invitrogen Inc. PV-3691
Protocol: (§1) Rho kinase biochemical assays described below depend on firefly luciferase-based, indirect measurement of total ATP consumption by the kinase following incubation with substrate and ATP. 25 μl of Rho kinase assay buffer (20 mM Tris-HCL [pH 7.5], 1 mM MgCl2, 0.4 mM CaCl2, 0.15 mM EGTA, 0.1 mg/ml bovine serum albumin) containing 0.82 μg/ml of recombinant N-terminal GST-tagged human Rho kinase 1 (ROCK1, amino acids 1-535, Invitrogen Inc., cat. #PV-3691) or recombinant N-terminal GST-tagged human Rho kinase 2 (ROCK2, amino acids 1-552, Invitrogen Inc., cat #PV3759), 100 μg/ml S6 peptide substrate (related to amino acids 218-249 of the human 40S ribosomal protein S6, and suitable for ROCK1 or ROCK2, e.g. Upstate/Millipore Inc., cat #12-420), and 3 µM ATP are dispensed to wells of a 384 multi-well opaque plate. The plate is centrifuged for 30 seconds at approximately 200×g. 240 nl of test compound in DMSO is dispensed to each well by passive pin transfer. The lag phase of this in vitro kinase reaction permits addition of compounds soon after the reaction initiates. The reaction is allowed to incubate at 30° C. for 2 hours. The assay plates are sealed and maintained in a humidified environment. After 2 hours, 25 μl of easyLite protein kinase assay reagent (Perkin-Elmer, Inc.) is dispensed. After an additional 10 minute incubation at room temperature (about 22° C.), luminescence activity is measured on a Molecular Devices Analyst multi-mode plate reader or other suitable plate reader. Kinase inhibition results in less ATP consumption, and therefore increased luminescence signal. Negative control activity is measured with DMSO lacking any test compound. The positive control is 2-methyl-1-(4-methylisoquinolin-5-ylsulfonyl)perhydro-1,4-diazepine hydrochloride (aka H-1152P, HCl salt). Efficacy is measured as a percentage of positive control activity. […] In some cases, kinase reactions and compound testing are performed in 1536 multi-well plates under similar conditions, with assay volumes appropriately scaled. The designated NT means the cited example was not tested.

[2] = target: T2, recombinant N-terminal GST-tagged human Rho kinase 2 (ROCK2, amino acids 1-552) (Homo sapiens, UniProt O75116); assay: In vitro Rho kinase assay (luciferase-based ATP consumption), ROCK2; format: biochemical
T2 construct: ROCK2, amino acids 1-552, Invitrogen Inc., cat #PV3759; GST (N); purchased Invitrogen Inc. PV3759
T2 sequence (O75116 1-552): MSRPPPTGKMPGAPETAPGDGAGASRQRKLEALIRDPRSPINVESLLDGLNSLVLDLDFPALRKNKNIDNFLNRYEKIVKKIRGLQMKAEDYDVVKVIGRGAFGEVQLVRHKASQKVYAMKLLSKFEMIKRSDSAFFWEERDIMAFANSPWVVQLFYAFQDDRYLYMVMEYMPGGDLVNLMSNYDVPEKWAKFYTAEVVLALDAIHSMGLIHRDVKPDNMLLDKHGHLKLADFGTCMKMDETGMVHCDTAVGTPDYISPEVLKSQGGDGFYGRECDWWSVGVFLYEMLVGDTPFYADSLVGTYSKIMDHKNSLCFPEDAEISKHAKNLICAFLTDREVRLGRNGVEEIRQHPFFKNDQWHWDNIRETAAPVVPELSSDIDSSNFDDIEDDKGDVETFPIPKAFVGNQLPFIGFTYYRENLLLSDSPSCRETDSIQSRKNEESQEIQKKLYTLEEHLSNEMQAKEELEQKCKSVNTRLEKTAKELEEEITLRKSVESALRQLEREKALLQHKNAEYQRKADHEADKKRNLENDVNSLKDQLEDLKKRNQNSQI
Protocol: as §1

T1 sequence (Q13464 1-535): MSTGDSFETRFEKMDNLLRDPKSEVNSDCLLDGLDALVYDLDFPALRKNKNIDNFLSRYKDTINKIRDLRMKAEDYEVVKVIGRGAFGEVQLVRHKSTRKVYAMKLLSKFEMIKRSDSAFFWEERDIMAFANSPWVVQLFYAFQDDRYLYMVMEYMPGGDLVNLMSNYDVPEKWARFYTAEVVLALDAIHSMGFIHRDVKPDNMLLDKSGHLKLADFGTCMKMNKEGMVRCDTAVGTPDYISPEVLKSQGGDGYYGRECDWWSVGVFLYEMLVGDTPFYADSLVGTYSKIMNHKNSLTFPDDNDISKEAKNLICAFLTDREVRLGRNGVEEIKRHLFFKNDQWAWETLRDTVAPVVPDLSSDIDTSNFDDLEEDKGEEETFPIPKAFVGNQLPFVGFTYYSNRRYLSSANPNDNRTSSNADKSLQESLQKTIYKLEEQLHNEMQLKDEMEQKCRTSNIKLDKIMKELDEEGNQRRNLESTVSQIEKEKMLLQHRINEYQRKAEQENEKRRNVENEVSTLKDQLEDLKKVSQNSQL

IC50 [1] | IC50 [2] | SMILES
> 5 µM | > 5 µM | COc1ccc(C(=O)NCc2nc(-c3ccncc3)n[nH]2)cc1C [Example 40, 4-Methoxy-3-methyl-N-((3-(pyridin-4-yl)-1H-1,2,4-triazol-5-yl)methyl)benzamide]
< 5 µM | < 5 µM | O=C(NCc1nc(-c2ccncc2)n[nH]1)c1cccc2cc[nH]c12 [Example 42, N-((3-(Pyridin-4-yl)-1H-1,2,4-triazol-5-yl)methyl)-1H-indole-7-carboxamide]
< 5 µM | > 5 µM | O=C(NCc1nc(-c2ccncc2)n[nH]1)c1cccc2c1OCC2 [Example 43, N-((3-(pyridin-4-yl)-1H-1,2,4-triazol-5-yl)methyl)-2,3-dihydrobenzofuran-7-carboxamide]
< 5 µM | < 5 µM | Cc1cc(C(=O)NCc2nc(-c3ccncc3)n[nH]2)ccc1O [Example 45, 4-Hydroxy-3-methyl-N-((3-(pyridin-4-yl)-1H-1,2,4-triazol-5-yl)methyl)benzamide]
< 5 µM | < 5 µM | O=C(NCc1nc(-c2ccncc2)n[nH]1)c1ccc(CO)cc1 [Example 51, 4-(Hydroxymethyl)-N-((3-(pyridin-4-yl)-1H-1,2,4-triazol-5-yl)methyl)benzamide]
> 5 µM | > 5 µM | c1ccc2c(NCc3nc(-c4ccncc4)n[nH]3)ncnc2c1 [Example 53, N-((3-(Pyridin-4-yl)-1H-1,2,4-triazol-5-yl)methyl)quinazolin-4-amine]
> 5 µM | > 5 µM | O=S(=O)(NCc1nc(-c2ccncc2)n[nH]1)c1ccc(OCc2ccccc2)cc1 [Example 54, 4-(Benzyloxy)-N-((3-(pyridin-4-yl)-1H-1,2,4-triazol-5-yl)methyl)benzenesulfonamide]
> 5 µM | > 5 µM | O=S(=O)(NCc1nc(-c2ccncc2)n[nH]1)c1ccc(O)cc1 [Example 55, 4-Hydroxy-N-((3-(pyridin-4-yl)-1H-1,2,4-triazol-5-yl)methyl)benzenesulfonamide]
> 5 µM | > 5 µM | CN(Cc1nc(-c2ccncc2)n[nH]1)C(=O)c1ccc(O)cc1O [Example 58, 2,4-Dihydroxy-N-methyl-N-((3-(pyridin-4-yl)-1H-1,2,4-triazol-5-yl)methyl)benzamide]
> 5 µM | > 5 µM | c1ccc2c(NCc3nc(-c4ccncc4)n[nH]3)n[nH]c2c1 [Example 59, N-((3-(Pyridin-4-yl)-1H-1,2,4-triazol-5-yl)methyl)-1H-indazol-3-amine]
< 5 µM | < 5 µM | O=C(CCc1nc(-c2ccncc2)n[nH]1)c1ccc(O)cc1 [Example 63, 1-(4-hydroxyphenyl)-3-(3-(pyridin-4-yl)-1H-1,2,4-triazol-5-yl)propan-1-one]
< 5 µM | < 5 µM | CC(NC(=O)c1cccs1)c1nc(-c2ccncc2)n[nH]1 (stereo not shown) [Example 65, N-(1-(3-(Pyridin-4-yl)-1H-1,2,4-triazol-5-yl)ethyl)thiophene-2-carboxamide]
< 5 µM | < 5 µM | CC(NC(=O)c1ccc(O)cc1O)c1nc(-c2ccncc2)n[nH]1 (stereo not shown) [Example 66, 2,4-Dihydroxy-N-(1-(3-(pyridin-4-yl)-1H-1,2,4-triazol-5-yl)ethyl)benzamide]
< 5 µM | < 5 µM | O=C(NCc1nc(-c2c[nH]c3ncccc23)n[nH]1)c1cccs1 [Example 70, N-((3-(1H-pyrrolo[2,3-b]pyridin-3-yl)-1H-1,2,4-triazol-5-yl)methyl)thiophene-2-carboxamide]

Further lines, the molecule ahead of its results:

SMILES | IC50 [1] | IC50 [2]
CC(C)(C)C(=O)Oc1ccc(C(=O)NCc2nc(-c3ccncc3)n[nH]2)c(O)c1 [Example 39, 3-Hydroxy-4-((3-(pyridin-4-yl)-1H-1,2,4-triazol-5-yl)methylcarbamoyl)phenyl pivalate] | < 5 µM | > 5 µM
CC(C)c1cccc(C(=O)NCc2nc(-c3ccncc3)n[nH]2)c1O [Example 41, 2-Hydroxy-3-isopropyl-N-((3-(pyridin-4-yl)-1H-1,2,4-triazol-5-yl)methyl)benzamide] | < 5 µM | < 5 µM
CS(=O)(=O)Nc1ccc(C(=O)NCc2nc(-c3ccncc3)n[nH]2)cc1 [Example 44, 4-(Methylsulfonamido)-N-((3-(pyridin-4-yl)-1H-1,2,4-triazol-5-yl)methyl)benzamide] | > 5 µM | > 5 µM
Cc1c(O)ccc(C(=O)NCc2nc(-c3ccncc3)n[nH]2)c1O [Example 46, 2,4-Dihydroxy-3-methyl-N-((3-(pyridin-4-yl)-1H-1,2,4-triazol-5-yl)methyl)benzamide] | < 5 µM | < 5 µM
Cc1ccsc1C(=O)NCc1nc(-c2ccncc2)n[nH]1 [Example 47, 3-Methyl-N-((3-(pyridin-4-yl)-1H-1,2,4-triazol-5-yl)methyl)thiophene-2-carboxamide] | < 5 µM | < 5 µM
Cc1csc(C(=O)NCc2nc(-c3ccncc3)n[nH]2)c1 [Example 48, 4-Methyl-N-((3-(pyridin-4-yl)-1H-1,2,4-triazol-5-yl)methyl)thiophene-2-carboxamide] | < 5 µM | < 5 µM
Cc1ccc(C(=O)NCc2nc(-c3ccncc3)n[nH]2)s1 [Example 49, 5-Methyl-N-((3-(pyridin-4-yl)-1H-1,2,4-triazol-5-yl)methyl)thiophene-2-carboxamide] | < 5 µM | < 5 µM
Cn1nc(-c2ccncc2)nc1CNC(=O)c1cccs1 [Example 50, N-((1-Methyl-3-(pyridin-4-yl)-1H-1,2,4-triazol-5-yl)methyl)thiophene-2-carboxamide] | > 5 µM | > 5 µM
CCc1cccc(C(=O)NCc2nc(-c3ccncc3)n[nH]2)c1O [Example 52, 3-Ethyl-2-hydroxy-N-((3-(pyridin-4-yl)-1H-1,2,4-triazol-5-yl)methyl)benzamide] | < 5 µM | < 5 µM
c1ccc(COc2ccc(CNCc3nc(-c4ccncc4)n[nH]3)cc2)cc1 [Example 56, N-(4-(Benzyloxy)benzyl)-1-(3-(pyridin-4-yl)-1H-1,2,4-triazol-5-yl)methanamine] | > 5 µM | > 5 µM
CN(Cc1nc(-c2ccncc2)n[nH]1)C(=O)c1cccs1 [Example 57, N-Methyl-N-((3-(pyridin-4-yl)-1H-1,2,4-triazol-5-yl)methyl)thiophene-2-carboxamide] | > 5 µM | > 5 µM
O=C(c1cccs1)N1CCn2nc(-c3ccncc3)nc2C1 [Example 62, (2-(Pyridin-4-yl)-5,6-dihydro-[1,2,4]triazolo[1,5-a]pyrazin-7(8H)-yl)(thiophen-2-yl)methanone] | > 5 µM | > 5 µM
Oc1ccc(C(O)CCc2nc(-c3ccncc3)n[nH]2)cc1 (stereo not shown) [Example 64, 4-(1-hydroxy-3-(3-(pyridin-4-yl)-1H-1,2,4-triazol-5-yl)propyl)phenol] | > 5 µM | > 5 µM
O=C(c1cccs1)N1CCCC1c1nc(-c2ccncc2)n[nH]1 (stereo not shown) [Example 67, (2-(3-(pyridin-4-yl)-1H-1,2,4-triazol-5-yl)pyrrolidin-1-yl) (thiophen-2-yl)methanone] | > 5 µM | > 5 µM
O=C(NCc1nc(-c2c[nH]c3ncccc23)n[nH]1)c1ccc(O)cc1O [Example 69] | < 5 µM | < 5 µM
